Laboratory results published in ChEMBL document CHEMBL1221359, “The discovery of a series of N-substituted 3-(4-piperidinyl)-1,3-benzoxazolinones and oxindoles as highly brain penetrant, selective muscarinic M1 agonists” (Bioorg Med Chem Lett, 2010).
The source made the active and inactive calls. No cut-off for these calls is given here.

How the values were obtained:
[1] = molecular target: Muscarinic acetylcholine receptor M3 (Homo sapiens, UniProt P20309); assay: Agonist activity at human muscarinic M3 receptor expressed in CHO cells assessed as effect on calcium mobilization by FLIPR assay; format: functional, cell-based
[2] = molecular target: T1, Muscarinic acetylcholine receptor M5 (Homo sapiens, UniProt P08912); assay: Agonist activity at human muscarinic M5 receptor expressed in CHO cells assessed as effect on calcium mobilization by FLIPR assay; format: functional, cell-based
T1 sequence (P08912 whole entry): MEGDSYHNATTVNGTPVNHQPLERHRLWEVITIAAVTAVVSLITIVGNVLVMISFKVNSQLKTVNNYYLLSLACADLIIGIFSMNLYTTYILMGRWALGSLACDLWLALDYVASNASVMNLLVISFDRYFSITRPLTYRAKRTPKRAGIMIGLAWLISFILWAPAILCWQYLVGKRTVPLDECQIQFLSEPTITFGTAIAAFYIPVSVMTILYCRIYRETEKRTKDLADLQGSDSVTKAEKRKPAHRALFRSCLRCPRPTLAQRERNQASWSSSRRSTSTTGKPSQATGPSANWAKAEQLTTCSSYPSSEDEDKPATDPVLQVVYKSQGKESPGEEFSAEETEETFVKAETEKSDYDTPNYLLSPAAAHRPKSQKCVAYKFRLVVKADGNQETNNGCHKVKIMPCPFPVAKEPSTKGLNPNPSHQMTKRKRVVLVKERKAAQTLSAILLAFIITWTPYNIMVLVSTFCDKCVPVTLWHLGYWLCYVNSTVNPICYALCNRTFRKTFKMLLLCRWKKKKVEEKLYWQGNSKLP

[3] = molecular target: T2, Muscarinic acetylcholine receptor M2 (Homo sapiens, UniProt P08172); assay: Agonist activity at human muscarinic M2 receptor expressed in CHO cells co-expressing Gqi5 chimeric G-protein assessed as effect on calcium mobilization by FLIPR assay; format: functional, cell-based
T2 sequence (P08172 whole entry): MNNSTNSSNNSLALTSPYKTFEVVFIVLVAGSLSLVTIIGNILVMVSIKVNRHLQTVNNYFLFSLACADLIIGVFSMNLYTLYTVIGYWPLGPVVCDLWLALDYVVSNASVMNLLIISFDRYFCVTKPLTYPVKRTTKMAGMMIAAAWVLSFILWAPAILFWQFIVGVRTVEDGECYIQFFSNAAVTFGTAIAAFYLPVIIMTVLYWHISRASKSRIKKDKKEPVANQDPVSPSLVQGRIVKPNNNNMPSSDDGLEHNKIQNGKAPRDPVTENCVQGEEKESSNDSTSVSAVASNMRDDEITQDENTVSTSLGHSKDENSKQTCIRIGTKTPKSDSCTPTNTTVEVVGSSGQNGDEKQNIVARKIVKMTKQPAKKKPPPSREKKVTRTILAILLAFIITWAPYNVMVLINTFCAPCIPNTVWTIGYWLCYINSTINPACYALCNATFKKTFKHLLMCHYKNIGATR

[4] = molecular target: T3, Muscarinic acetylcholine receptor M4 (Homo sapiens, UniProt P08173); assay: Agonist activity at human muscarinic M4 receptor expressed in CHO cells co-expressing Gqi5 chimeric G-protein assessed as effect on calcium mobilization by FLIPR assay; format: functional, cell-based
T3 sequence (P08173 whole entry): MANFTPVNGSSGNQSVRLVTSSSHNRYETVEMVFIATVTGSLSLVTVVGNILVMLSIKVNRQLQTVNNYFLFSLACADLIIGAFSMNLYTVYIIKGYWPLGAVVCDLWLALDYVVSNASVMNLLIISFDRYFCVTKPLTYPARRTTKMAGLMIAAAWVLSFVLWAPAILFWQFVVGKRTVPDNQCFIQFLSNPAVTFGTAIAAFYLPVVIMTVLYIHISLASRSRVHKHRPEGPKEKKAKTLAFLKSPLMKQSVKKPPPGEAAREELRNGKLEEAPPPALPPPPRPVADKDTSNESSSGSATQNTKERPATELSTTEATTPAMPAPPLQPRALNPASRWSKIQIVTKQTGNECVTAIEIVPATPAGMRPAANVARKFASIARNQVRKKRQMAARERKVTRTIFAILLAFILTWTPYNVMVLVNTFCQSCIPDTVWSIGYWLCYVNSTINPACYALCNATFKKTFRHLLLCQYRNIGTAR

[5] = molecular target: T4, Muscarinic acetylcholine receptor M1 (Homo sapiens, UniProt P11229); assay: Agonist activity at human muscarinic M1 receptor expressed in CHO cells assessed as effect on calcium mobilization by FLIPR assay; format: functional, cell-based
T4 sequence (P11229 whole entry): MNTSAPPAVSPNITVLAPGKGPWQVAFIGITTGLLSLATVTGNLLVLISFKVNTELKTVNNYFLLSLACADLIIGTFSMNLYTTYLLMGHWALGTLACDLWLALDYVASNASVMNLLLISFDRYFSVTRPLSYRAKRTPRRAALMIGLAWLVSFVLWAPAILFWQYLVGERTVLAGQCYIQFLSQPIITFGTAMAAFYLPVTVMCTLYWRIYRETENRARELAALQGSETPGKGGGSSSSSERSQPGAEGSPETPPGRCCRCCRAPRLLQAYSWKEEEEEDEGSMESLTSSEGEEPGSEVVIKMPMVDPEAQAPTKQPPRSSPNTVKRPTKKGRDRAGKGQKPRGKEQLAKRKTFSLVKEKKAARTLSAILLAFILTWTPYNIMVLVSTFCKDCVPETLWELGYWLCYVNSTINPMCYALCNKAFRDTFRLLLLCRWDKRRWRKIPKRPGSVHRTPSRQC

[6] = Clearance in rat blood at 3 mg/kg, po; format: ADME, organism-based; set-up: dose 3 mg/kg, route oral
[7] = test system: Brain; assay: Drug level in rat brain assessed as tissue binding; format: ADME, tissue-based
[8] = Ratio of drug level in brain to blood in rat at 1 mg/kg, iv; format: ADME, organism-based; set-up: dose 1 mg/kg, route intravenous
[9] = Drug level in rat whole blood assessed as tissue binding; format: ADME, tissue-based
[10] = Inhibition of sigma receptor at 10 uM
[11] = species: Rattus norvegicus; assay: Cognitive enhancing effect in rat assessed as reversal of temporal-induced memory deficit by novel object recognition assay; format: functional, organism-based
[12] = test system: Rattus norvegicus; assay: Cognitive enhancing effect in rat assessed as reversal of temporal-induced memory deficit at 1 mg/kg by novel object recognition assay; format: functional, organism-based; set-up: dose 1 mg/kg
[13] = Ratio of drug level in brain to blood in rat at 3 mg/kg, po; format: ADME, organism-based; set-up: dose 3 mg/kg, route oral

Muscarinic acetylcholine receptor M3, sequence (P20309 whole entry): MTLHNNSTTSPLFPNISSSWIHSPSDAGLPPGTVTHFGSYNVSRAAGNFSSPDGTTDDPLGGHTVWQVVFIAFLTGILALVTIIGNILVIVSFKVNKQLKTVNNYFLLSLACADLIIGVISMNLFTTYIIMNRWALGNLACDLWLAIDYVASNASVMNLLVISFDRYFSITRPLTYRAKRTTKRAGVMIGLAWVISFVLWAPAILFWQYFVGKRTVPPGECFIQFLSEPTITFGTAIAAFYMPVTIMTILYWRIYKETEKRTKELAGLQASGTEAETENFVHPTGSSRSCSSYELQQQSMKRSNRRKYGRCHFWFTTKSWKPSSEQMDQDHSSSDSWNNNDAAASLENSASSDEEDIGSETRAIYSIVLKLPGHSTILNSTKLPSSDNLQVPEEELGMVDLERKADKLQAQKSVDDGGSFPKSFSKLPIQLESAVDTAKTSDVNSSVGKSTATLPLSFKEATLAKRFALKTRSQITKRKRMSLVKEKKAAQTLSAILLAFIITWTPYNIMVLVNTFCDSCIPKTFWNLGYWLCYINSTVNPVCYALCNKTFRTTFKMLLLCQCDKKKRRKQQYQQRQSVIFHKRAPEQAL

Compound | EC50 [1] [nM] | EC50 [2] [nM] | EC50 [3] [nM] | EC50 [4] [nM] | EC50 [5] [nM] | CL/F [6] [mL/min/kg] | Drug uptake [7] [%] | Kp [8] | Drug uptake [9] [%] | inhibition [10] [%] | Activity [11] | Activity [12] | Kp [13]
CCO[C@H]1CC[C@](C)(N2CCC(n3c(=O)oc4ccc(C#N)cc43)CC2)CC1 | 2510 | 398 | 2510 | 794 | 3.16 | – | – | – | – | – | – | – | –
CO[C@H]1CC[C@](C)(N2CCC(n3c(=O)oc4ccc(C)cc43)CC2)CC1 | 2000 | 398 | 1260 | 501 | 7.94 | – | – | – | – | – | – | – | –
CCO[C@H]1CC[C@](C)(N2CCC(n3c(=O)oc4ccc(S(=O)(=O)CC)cc43)CC2)CC1 | 398 | 5010 | > 15800 | 1580 | 200 | – | – | – | – | – | – | – | –
CCO[C@H]1CC[C@](C)(N2CCC(n3c(=O)oc4ccc(S(C)(=O)=O)cc43)CC2)CC1 | 1260 | 1260 | 2510 | 1580 | 12.6 | – | – | – | – | – | – | – | –
CCCO[C@H]1CC[C@](C)(N2CCC(N3C(=O)Cc4ccc(C)cc43)CC2)CC1 | 63.1 | 20 | 63.1 | 39.8 | 0.501 | 85 | 94 | 5.7 | 80 | – | – | – | –
CCO[C@H]1CC[C@](C)(N2CCC(n3c(=O)oc4ccc(OC)cc43)CC2)CC1 | 1580 | 158 | 398 | 158 | 2.51 | – | – | – | – | – | – | – | –
CCO[C@H]1CC[C@](C)(N2CCC(n3c(=O)oc4ccccc43)CC2)CC1 | > 15800 | 1000 | > 15800 | 126 | 25.1 | – | – | – | – | – | – | – | –
Cc1cc2c(cc1F)[nH]c(=O)n2C1CCN(C2CCOCC2)CC1 | 2510 | – | – | 251 | 5.01 | – | – | – | – | – | – | – | –
COCCO[C@H]1CC[C@](C)(N2CCC(n3c(=O)oc4ccc(C#N)cc43)CC2)CC1 | 3980 | 1000 | 2510 | 794 | 10 | 23 | 61 | – | 42 | 75 | Dose-dependent effect | Active | 1.7
CCCO[C@H]1CC[C@](C)(N2CCC(n3c(=O)[nH]c4cc(F)c(C)cc43)CC2)CC1 | 79.4 | 12.6 | 20 | 12.6 | 0.398 | – | – | – | – | – | – | – | –
CCCO[C@H]1CC[C@](C)(N2CCC(n3c(=O)oc4ccc(S(C)(=O)=O)cc43)CC2)CC1 | 3160 | 316 | 794 | 501 | 2.51 | 11 | 74 | – | 60 | – | – | – | 0.8
CCO[C@H]1CC[C@](C)(N2CCC(N3C(=O)Cc4ccc(C)cc43)CC2)CC1 | 126 | 20 | 100 | 31.6 | 0.398 | – | – | – | – | – | – | – | –
CCO[C@H]1CC[C@](C)(N2CCC(n3c(=O)oc4cc(F)c(C)cc43)CC2)CC1 | 794 | 50.1 | 501 | 100 | 1 | – | – | – | – | – | – | – | –
COCCO[C@H]1CC[C@](C)(N2CCC(n3c(=O)oc4ccc(C)cc43)CC2)CC1 | 631 | 158 | 631 | 200 | 2.51 | – | – | – | – | – | – | – | –
CO[C@H]1CC[C@](C)(N2CCC(N3C(=O)Cc4ccc(C)cc43)CC2)CC1 | 316 | 126 | 631 | 158 | 3.16 | – | – | – | – | – | – | – | –
CCO[C@H]1CC[C@](C)(N2CCC(n3c(=O)oc4c(F)cc(C)cc43)CC2)CC1 | 2000 | 158 | 794 | 200 | 1.26 | – | – | – | – | – | – | – | –
